The source of these data is paper PMC5382548 (Scientific Reports, 2015).

In one assay the test system is A594 (lung). The experiment in a line: SRB short-term cytotoxicity assay, A594. In kind it is cell-based, human. To be noted: for IC50: Homo sapiens, 96 h. As to the method:
(§1) Short-term anti-proliferative assays were carried out by two different assays using a panel of human cancer and non-malignant human cell lines. […] The transformed human embryonic kidney cell line HEK293T (wt KRAS) was sensitive to all tested drugs, including TMPyP4, a cationic porphyrin established as a G4 ligand, as well as the anticancer drug 5-fluorouracil (5-FU).
(§2) Human cell lines, breast carcinoma (MCF7), lung carcinoma (A549), pancreatic cancer (MIA PaCa2, Panc-1), immortalised telomerase-negative human lung fibroblast (ALT) and normal human lung fibroblast (WI-38), were all purchased from American Type Cell Culture (ATCC). Cell lines were maintained in appropriate medium supplemented with 10% fetal bovine serum (Invitrogen, UK), 2 mM L-glutamine (Invitrogen, Netherlands), and other components as specified by the suppliers. All cell lines were maintained at 37°C, 5% CO2, and routinely passaged. Short-term growth inhibition was measured using the SRB assay as described previously[43] (additional details described in Supplementary Information). […]
(§3) Sulforhodamine B (SRB) short-term cytotoxicity assay
(§4) Cells were seeded at appropriate densities into the wells of 96 well plates in their corresponding medium and incubated overnight to allow the cells to attach. Subsequently cells were exposed to various concentrations of freshly made solutions of drugs and incubated for 96 h. The cells were subsequently fixed with ice-cold trichloacetic acid (TCA) (10%, w/v) for 30 min and stained with 0.4% SRB dissolved in 1% acetic acid for 15 min.
(§5) All incubations were carried out at room temperature except for TCA fixation, which was at 4 °C. The IC50 value, the concentration required to inhibit cell growth by 50%, was determined from the mean absorbance at 540 nm for each drug concentration expressed as a percentage of the control untreated well absorbance. (Performed at School of Pharmacy, University College of London). […]
(#sc-30/sc-126; Santa Cruz Biotechnology Inc., Santa Cruz, CA, USA). Finally, immunoblots were incubated with secondary anti-mouse antibody conjugated with horseradish peroxidase (BioRad) for 3 h at room temperature. The membranes were processed for protein detection using Super Signal substrate (Pierce, Rockford, IL, USA). β-Actin (#A-5441, Sigma–Aldrich) was used as a loading control. Steady-state protein levels were expressed as mean ±SEM from at least three independent experiments.

The subject of a further assay is WI-38 (lung fibroblast). The assay is described as follows: SRB short-term cytotoxicity assay, WI-38. In kind it is cell-based. To be noted: Homo sapiens, 96 h. As for the experimental part:
as §1, §2, §3, §4, §5
(#sc-30/sc-126; Santa Cruz Biotechnology Inc., Santa Cruz, CA, USA). […]

The test system of assay [1] is human KRAS promoter (pGL-Ras0.5, pGL-Ras2.0). The experiment in a line: KRAS promoter luciferase reporter assay in HEK293T cells. In kind it is cell-based. To be noted: equitoxic (IC50) concentrations, 72 h, vs DMSO. An excerpt:
A first evaluation of the compounds' ability to down-regulate KRAS gene transcription by directly acting on the KRAS promoter was undertaken with a luciferase reporter assay. For this purpose two different size wild-type promoter constructs were used, containing the G4 sequence and cloned into the Firefly luciferase pGL3 Basic backbone (pGL-Ras0.5, PGL-Ras2.0). These and pGL3 Basic empty (Firefly Luciferase negative control/no promoter) were co-transfected into HEK293T cells together with Renilla luciferase pRL-TK (transfection efficiency normalization) as a G4 negative control. […] In general, the data in Figure 5 clearly portraits a reduction of luciferase activity by ~25–50% when compared to Renilla basal levels induced by all G4 ligands.
Figure 5 KRAS promoter activity is decreased following exposure of HEK293T cells lines to equitoxic (IC50) concentrations of compounds TMPyP4, 2d, 3d and 3e. Cells were co-transfected with pGL3-basic vector (empty vector control), or with KRAS promoter luciferase reporter construct PGL-Ras0.5, or PGL-Ras2.0, together with pRL-TK. Twenty-four h later, cells were replated in 96 wells plates, at 5000 cells per well. […] KRAS promoter activity levels were evaluated by Dual-Luciferase assay 72 h after compound exposure. Results are expressed as the luciferase signal ratio of pGL-Ras2.0 or pGL-Ras0.5 to pGL3-basic vector transfected cells, after normalization with Renilla Luciferase. The results are expressed as the mean ± SEM fold-change compared to DMSO exposure, from three independent experiments. *p < 0.05 and § p < 0.01 from DMSO vehicle control.
HEK293T cells were seeded in 35 mm plates at 150000 cells per well. 24 h later, cells were transiently co-transfected with pGL3-basic vector (empty vector control), or with KRAS promoter luciferase reporter construct pGL-Ras0.5, or pGL-Ras2.0, together with pRL-TK (Promega, Madison, WI, USA). KRAS promotor luciferase reporters respectively harbour 500 bp and 2000 bp of the human KRAS promotor region, and were previously described elsewhere. pGL3 Basic empty was used as negative control, and pRL-TK simultaneously for transfection efficiency normalization and as a G4 negative control. […] Transfections were performed using Lipofectamine 2000 (Invitrogen), according to the manufacturer's instructions. […] Finally, 72 h after compound incubation, cells were lysed and firefly and Renilla luciferase activities were measured using the Dual-Luciferase®Reporter Assay System (Promega). KRAS promoter activity levels were expressed as the luciferase signal ratio of pGL-Ras2.0 or pGL-Ras0.5 to pGL3-basic vector transfected cells, after normalization with Renilla Luciferase. The results are expressed as the mean ± SEM fold-change compared to DMSO exposure, from three independent experiments.

As usually defined, the IC50 is the point on the concentration scale where inhibition reaches its midpoint.

For `CCN(CC)CCCNc1ccc2c(c1)c1[nH]c3ccccc3c1c[n+]2C` [2d], the figures for the 50% inhibitory concentration (IC50) in the assay with A594 (lung) and with WI-38 (lung fibroblast) were 0.4 µM and 4.86 µM, respectively. In addition, in assay [1], the “Reduction of KRAS promoter (luciferase) activity” value (“Reduction of KRAS promoter” below) is given as “up to 50%”.

In the case of `CCN(CC)CCCNc1ccc2[nH]c3c(c[n+](C)c4ccc(NCCCN(CC)CC)cc34)c2c1.[Cl-]` [3d], the “Reduction of KRAS promoter” value in assay [1] is recorded as “up to 50%”.

On to `C[n+]1ccc(-c2c3nc(c(-c4cc[n+](C)cc4)c4ccc([nH]4)c(-c4cc[n+](C)cc4)c4ccc([nH]4)c(-c4cc[n+](C)cc4)c4nc2C=C4)C=C3)cc1` [TMPyP4, reference compound], for which, in assay [1], the “Reduction of KRAS promoter” value worked out at 25%.

Consider `Cn1cc2c3ccccc3nc-2c2cc(Br)ccc21` [2a, 2-bromo-5-methyl-indolo[3,2-c]quinoline], for which the “Selectivity index SI = IC50(WI-38)/IC50(A594)” value in the assay with A594 (lung) turned out to be 9.3. Also, the concentration for half-maximal inhibition (IC50) in the assay with A594 (lung) came out at 0.67 µM; with WI-38 (lung fibroblast), 6.26 µM.

On to `CCN(CC)CCCNc1ccc2c(c1)[nH]c1c2c[n+](C)c2ccc(NCCCN(CC)CC)cc12.[Cl-]` [3e], for which, in the assay with A594 (lung), the “Selectivity index SI = IC50(WI-38)/IC50(A594)” value was found to be 7.0 and the 50% inhibitory concentration (IC50) is 1.45 µM. In addition, in the assay with WI-38 (lung fibroblast), the 50% inhibitory concentration (IC50) was 10.1 µM. Also, in assay [1], the “Reduction of KRAS promoter” value was “up to 50%”.
